ChEMBL document CHEMBL1133448, “Computational studies on HIV-1 protease inhibitors: influence of calculated inhibitor-enzyme binding affinities on the statistical quality of 3D-QSAR CoMFA models” (J Med Chem, 2000)

Molecular target: Human immunodeficiency virus type 1 protease (Human immunodeficiency virus 1, UniProt Q72874)
Assay: Inhibition of human immunodeficiency virus type 1 (HIV-1) protease enzyme.

How did the IC50 turn out when CC(C)(C)OC(=O)N[C@@H](Cc1ccccc1)[C@@H](O)C[C@@H](Cc1ccc(O)cc1)C(=O)NC1c2ccccc2C[C@@H]1O (stereo partly specified) was run?
Its IC50 is 0.158 nM.

Which IC50 does the source give for COC(=O)C1Cc2ccccc2C1NC(=O)[C@H](Cc1ccccc1)C[C@H](O)[C@H](Cc1ccccc1)NC(=O)OC(C)(C)C (stereo partly specified) here?
The IC50 was 66.1 nM.

How did the IC50 turn out when CC(C)(C)OC(=O)N[C@@H](Cc1ccccc1)[C@@H](O)C[C@@H](Cc1ccccc1)C(=O)NC1C=CC[C@@H]1O (stereo partly specified) was run?
Its IC50 is 9.55 nM.

How did the IC50 turn out when CC(C)(C)OC(=O)N[C@@H](Cc1ccccc1)[C@@H](O)C[C@@H](Cc1ccccc1)C(=O)NC1CCc2ccccc21 (stereo partly specified) was run?
The IC50 was 33.9 nM.

For CC(C)(C)OC(=O)N[C@@H](Cc1ccccc1)[C@@H](O)C[C@@H](CCCc1ccccc1)C(=O)NC1c2ccccc2C(O)[C@@H]1O (stereo partly specified), which IC50 is on record?
Its IC50 is 0.191 nM.

For CC(C)(C)OC(=O)NC(Cc1ccccc1)[C@@H](O)CC(Cc1ccc(N)cc1)C(=O)NC1c2ccccc2C[C@@H]1O (stereo partly specified), which IC50 is on record?
The IC50 was 0.309 nM.

For CC(C)(C)OC(=O)NC(Cc1ccccc1)[C@@H](O)CC(CSc1ccccc1)C(=O)NC1c2ccccc2C[C@@H]1O (stereo partly specified), which IC50 is on record?
The IC50 was 0.251 nM.

Which IC50 does the source give for O=C(N[C@@H](Cc1ccccc1)[C@@H](O)C[C@@H](Cc1ccccc1)C(=O)NC1c2ccccc2C[C@@H]1O)OC1CCOC1 (stereo partly specified) here?
Its IC50 is 0.0603 nM.

CC(C)(C)OC(=O)N[C@@H](Cc1ccccc1)[C@@H](O)C[C@@H](Cc1ccc(C(F)(F)F)cc1)C(=O)NC1c2ccccc2C[C@@H]1O (stereo partly specified) was tested. Which IC50 did it give?
The IC50 was 0.257 nM.

For CC(C)(C)OC(=O)N[C@@H](Cc1ccccc1)[C@@H](O)C[C@@H](Cc1c(F)c(F)c(F)c(F)c1F)C(=O)NC1c2ccccc2C[C@@H]1O (stereo partly specified), which IC50 is on record?
The IC50 was 0.603 nM.

How did the IC50 turn out when CC(C)(C)OC(=O)N[C@@H](Cc1ccccc1)[C@@H](O)CC1(Cc2ccccc2)CCCN(C2c3ccccc3C[C@@H]2O)C1=O (stereo partly specified) was run?
The IC50 was 1260 nM.

How did the IC50 turn out when CC(C)(C)OC(=O)N[C@@H](Cc1ccccc1)[C@@H](O)/C=C(/Cc1ccccc1)C(=O)NC1c2ccccc2C[C@@H]1O (stereo partly specified) was run?
The IC50 was 1.29 nM.

Cc1ccc(C[C@H](C[C@H](O)[C@H](Cc2ccccc2)NC(=O)OC(C)(C)C)C(=O)NC2c3ccccc3C[C@@H]2O)cc1 (stereo partly specified) was tested. Which IC50 did it give?
Its IC50 is 0.288 nM.

For CC(C)(C)OC(=O)N[C@@H](Cc1ccccc1)[C@@H](O)C[C@H](C(=O)NC1c2ccccc2C[C@@H]1O)C(=O)c1ccccc1 (stereo partly specified), which IC50 is on record?
Its IC50 is 5.37 nM.

How did the IC50 turn out when CC(C)(C)OC(=O)N[C@@H](Cc1ccccc1)[C@@H](O)C[C@@H](C/C=C/c1ccccc1)C(=O)NC1c2ccccc2C[C@@H]1O (stereo partly specified) was run?
The IC50 was 0.229 nM.

Which IC50 does the source give for CC(C)(C)OC(=O)N[C@@H](Cc1ccccc1)[C@@H](O)C[C@@H](Cc1ccccc1)C(=O)NC1c2ccccc2C[C@@H]1O (stereo partly specified) here?
The IC50 was 0.251 nM.

With CC(C)(C)OC(=O)NC(Cc1ccccc1)[C@@H](O)CC(Cc1ccc([N+](=O)[O-])cc1)C(=O)NC1c2ccccc2C[C@@H]1O (stereo partly specified) as the compound, how does the IC50 read?
The IC50 was 0.269 nM.

CC(C)(C)OC(=O)N[C@@H](Cc1ccccc1)[C@@H](O)C[C@@H](Cc1ccccc1)C(=O)NC1c2ccccc2OC[C@@H]1O (stereo in doubt; 27) was tested. Which IC50 did it give?
The IC50 was 40.7 nM.

Which IC50 does the source give for CC(C)(C)OC(=O)N[C@@H](Cc1ccccc1)[C@@H](O)CCC(=O)NC1c2ccccc2C[C@@H]1O (stereo partly specified) here?
Its IC50 is 2950 nM.

CC(C)(C)OC(=O)N[C@@H](Cc1ccccc1)[C@@H](O)CC(=O)NC1c2ccccc2C[C@@H]1O (stereo partly specified) was tested. Which IC50 did it give?
Its IC50 is 562 nM.

With CC(C)(C)OC(=O)N[C@@H](Cc1ccccc1)[C@@H](O)C[C@@H](Cc1ccccc1)C(=O)NC1c2ccccc2OC[C@@H]1O (stereo in doubt; 26) as the compound, how does the IC50 read?
The IC50 was 0.178 nM.

For C=CC[C@H](C[C@H](O)[C@H](Cc1ccccc1)NC(=O)OC(C)(C)C)C(=O)NC1c2ccccc2C[C@@H]1O (stereo partly specified), which IC50 is on record?
Its IC50 is 27.5 nM.

With CC(C)(C)OC(=O)N[C@@H](Cc1ccccc1)[C@@H](O)C[C@@H](Cc1ccccc1)C(=O)NC1c2ccccc2C(O)[C@@H]1O (stereo partly specified) as the compound, how does the IC50 read?
The IC50 was 0.1 nM.

How did the IC50 turn out when CC(C)(C)OC(=O)N[C@@H](Cc1ccccc1)[C@@H](O)C[C@@H](Cc1ccncc1)C(=O)NC1c2ccccc2C[C@@H]1O (stereo partly specified) was run?
Its IC50 is 0.525 nM.

CC(C)(C)OC(=O)N[C@@H](Cc1ccc(O)cc1)[C@@H](O)C1CCCC1C(=O)NCc1ccccc1 (stereo partly specified) was tested. Which IC50 did it give?
Its IC50 is 589 nM.

For O=C(NC1c2ccccc2C[C@@H]1O)[C@H](Cc1ccccc1)CC(O)C[C@@H](Cc1ccccc1)C(=O)NC1c2ccccc2C[C@@H]1O (stereo partly specified), which IC50 is on record?
Its IC50 is 0.692 nM.
